Source: patent US7834148B2, “Protein phosphorylation imaging systems, methods of making phosphorylation imaging systems, and methods of use thereof” (Stanford University, priority 2006, dated 2010)

What was measured:
Akt kinase = assay: In vitro Akt kinase assay in cell lysates using purified GSK-3β as substrate; type: cell-based, human; conditions: LY 24 hours or perifosine 6 hours
Description: Complemented FL activities were determined by bioluminescence imaging of intact cells while Akt phosphorylation status/kinase activities in cell lysates were determined by phosphorylation-specific western blotting and in vitro kinase assay using purified glycogen synthase kinase 3β (GSK-3β) as the substrate, respectively.
To measure Akt kinase activities, 200 μg of whole cell lysates were used in an in vitro Akt kinase assay using a Cell Signaling kit (Beverly, Mass.). Briefly, Akt was immunoprecipitated using the immobilized Akt antibody, followed by an in vitro kinase assay at 30° C. for 1 hour using 1 μg of the purified GSK-3β fusion protein as the substrate. The kinase reaction was terminated with 3× loading buffer and heated at 95° C. for 3 mins. […] Membranes were developed as described above. In all cases, band intensities were quantified by Image J (National Institute of Health, Bethesada, Md.).

Akt kinase activity [1] = assay: Bioluminescence imaging of nude mice bearing 293T/AS1T and 293T/AS1A xenografts; type: in vivo; conditions: 30 mg/kg
Description: FIGS. 10a-10b illustrate the inhibition of Akt kinase activity by perifosine in living mice. FIG. 10a illustrates the efficacy of perifosine in inhibition of Akt kinase activity in living subjects was determined by bioluminescence imaging of nude mice bearing 293T/AS1A and 293T/AS1T xenografts. Mice were treated with 30 mg/kg of perifosine or carrier control at time 0 hour and re-imaged at 6, 15, 27 and 39 hours upon i.p. injection of D-Luciferin. FIG. 10b illustrate the max photons at each time point was normalized to that of carrier control treated mice and expressed as average normalized max photons+/−S.E.M. for each xenograft. It should be noted that p<0.05 relative to AS1A xenografts.
To determine if sufficient sensitivity for indirect imaging of Akt kinase activity has been achieved in living subjects, 293T/AS1T and 293T/AS1A cells were implanted at the lower left and right of nude mice for xenograft establishment. Since the bioluminescence signal from untreated 293T/AS1A cells was about 10-fold higher than that of 293T/AS1T cells in cell culture studies, 10% 293T/AS1A cells were mixed with 90% untransfected 293T cells (no FL activity) prior to implantation to normalize the signals to that of 293T/AS1T cells. Complemented FL activity in living mice was determined by bioluminescence imaging using a cooled coupled charged device (CCD) camera upon i.p. injection of D-luciferin. […] Perifosine was chosen over LY for these animal experiments since perifosine is water soluble and currently being evaluated in clinical trials. […] 6 hours of perifosine treatment led of a 20% decrease in complemented FL activity in 293T/AS1A but a 60% increase in complemented FL activity in 293T/AS1T relative to carrier control treated mice (p<0.05), corresponding to the 2-fold difference between AS1T and AS1A (FIG. 10b).
All of the animal handling was performed in accordance with Stanford University Animal Research Committee guidelines, Mice were gas anesthetized using isofluorane (2% isofluorane in 100% oxygen) during all injection and imaging procedures. Mice were imaged using a cooled CCD camera (Xenogen IVIS29; Xenogen Corp., Alameda, Calif.). […] To quantify the measured light, regions of interest were drawn over the area of the implanted cells, and the maximum photons/s/cm^2/steradian (sr) were obtained as validated previously. […] Max photons at time 6, 12 and 24 hours were normalized to that of time 0 hr for each individual mouse, and expressed as normalized average max photons±S.E.M.

Akt kinase activity [2] = assay: Akt kinase sensor complemented FL activity, bioluminescence imaging of intact 293T/AS1T and 293T/AS1A stable cells; type: cell-based, human
Description: Complemented FL activity at each time point was determined by bioluminescence imaging of intact cells by addition of D-luciferin (FIG. 7a), prior to normalization for protein content (FIG. 7b).
FL activities in intact cells were determined by bioluminescence imaging of intact cells as described above. Cells were lysed in 1% NP40 buffer (Cell Signaling, Beverly, Mass.) for 15 mins on ice followed by centrifugation at 1×10^4 g to remove cell debris. Protein concentrations were determined by Biorad protein Dc assay (Biorad). FL activities were normalized to protein content and then to that of carrier control treated cells and expressed as normalized FL activity±standard error of means (S.E.M.)

## CCCCCCCCCCCCCCCCCCOP(=O)([O-])OC1CC[N+](C)(C)CC1 [perifosine]
Akt kinase; 293T/AS1A cells
  amount of phosphorylated GSK-3β: decreased
Akt kinase; 293T/AS1T cells, relative to carrier control
  amount of phosphorylated GSK-3β: decreased
Akt kinase activity [1]; 293T/AS1A xenografts, 6 hours, relative to carrier control treated mice
  decrease in complemented FL activity: 20%
Akt kinase activity [1]; 293T/AS1T and 293T/AS1A xenografts, later than 6 hours, relative to carrier control, p>0.05
  complemented FL activity at later time points: no significant difference
Akt kinase activity [1]; 293T/AS1T xenografts, 6 hours, relative to carrier control treated mice, p<0.05
  increase in complemented FL activity: 60%
Akt kinase activity [1]; xenografts, 6 hours
  difference between AS1T and AS1A: 2 fold
Akt kinase activity [2]; 293T/AS1T at all time points (6, 12, 24 hours) and concentrations tested, compared to 293T/AS1A, p<0.05
  complemented FL activity: dose-dependent increase
Akt kinase activity [2]; 293T/AS1T cells
  time of maximum increase in complemented FL activity: 6 h
Akt kinase activity [2]; 293T/AS1T, drug then carrier control, vs carrier control then drug or drug throughout, LY 50 μM 24+24 hours, perifosine 25 μM 6+6 hours
  complemented FL activity after washout (reversibility): significantly lower
